From publication PMC11357256, “Selectivity Screening and Structure–Cytotoxic Activity Observations of Selected Oleanolic Acid (OA)-Type Saponins from the Amaranthaceae Family on a Wiade Panel of Human Cancer Cell Lines” (Molecules, 2024) come the findings set out here.

One experiment relates to Nthy-ori 3-1. Put plainly: MTT cell viability assay, Nthy-ori 3-1 normal thyroid epithelial cells. It counts as cell-based. The following applies: Homo sapiens. An excerpt: (§1) Cell lines used in the study were grouped as follows: skin panel (melanomas: HTB140, derived from metastatic site: lymph node, ATCC Hs 294 T; malignant A375, ATCC CRL-1619; stage I primary WM793, RRID:CVCL 8787; skin keratinocytes HaCaT); prostate panel (prostate carcinomas: Du145, derived from metastatic site: brain, ATCC HTB-81; grade IV PC3, derived from metastatic site: bone, ATCC CRL-1435, LNCaP, derived from the metastatic site: lymph node, ATCC CRL-1740; prostate epithelial, PNT2, ECACC 95012613); gastrointestinal panel (colorectal adenocarcinomas: Caco2, ATCC HTB-37, HT29, ATCC HTB-38, DLD-1, ATCC CCL-221, HCT116, ATCC CCL-247, and colon epithelial cells CCD 841 CoN, ATCC CRL-1790; hepatocellular carcinoma HepG2, ATCC HB-8065); thyroid panel (follicular thyroid carcinoma FTC133, ECACC 9406090, undifferentiated thyroid carcinoma 8505C, ECACC 94090184, papillary thyroid carcinoma TPC-1, SCC147, normal thyroid follicular epithelial Nthy-ori 3–1, ECACC 90011609); and breast panel (ER-positive breast adenocarcinoma MCF7, ATCC HTB-22; ER-negative breast adenocarcinoma MDA-MB-231, ATCC HTB-26; breast epithelial MCF10A, ATCC CRL-10317). Cells were grown under standard conditions (37 °C, 5% CO2, relative humidity), and culture media (DMEM/F12 for PNT2, WM 793, HT29, PC3, FTC133, 8505 C, MDA-MB-231, TPC-1; DMEM Low Glucose for DU145; DMEM High Glucose for HTB140, A375, HaCaT; MEM with NEAA for Caco2 and MCF7; RPMI1640 with sodium pyruvate for LNCaP; DMEM/F12 with 20 ng/mL epidermal growth factor (EGF), 10 μg/mL insulin, 0.5 μg/mL hydrocortisone, 100 ng/mL cholera toxin) for MCF10A) supplemented with 10% fetal bovine serum (FBS) or 5% donor horse serum for MCF10A, and 1% antibiotics solution (10,000 U penicillin and 10 mg streptomycin/mL) […], as previously described. All cell lines, culture media, and supplements were from Sigma-Aldrich (Germany).
(§2) The cells were seeded in 96-well plates (1.5 × 10^4 cells/well). After 24 h, fresh medium was added, containing the tested compounds (0.5–100 μg/mL) and incubated for 24 or 48 h. Cell viability was determined by MTT assay, according to the manufacturer’s instructions, as described previously. Each experiment was performed in triplicate. The absorbance was measured at 570 nm using a Biotek Synergy microplate reader (BioTek Instruments Inc., Winooski, VT, USA). Cell viability was expressed as a percent of control (untreated cells). Doxorubicin was used as a reference drug.

Another experiment relates to 8505C. The experiment in a line: MTT cell viability assay, 8505C undifferentiated thyroid carcinoma cells. As to conditions: for IC50: Homo sapiens, 8505C; for Selectivity Index (SI): IC50 Nthy-ori 3-1 / IC50 8505C. It counts as cell-based, human.
Source text: as §1, §2
(§3) The selectivity index (SI) was calculated from the following formula:SI = IC50 of compound in a normal cell line/IC50 of compound in cancer cell line.IC50, half maximal inhibitory concentration, is a concentration required to kill 50% of the cells.

For another experiment, the system named is TPC-1. The experiment in a line: MTT cell viability assay, TPC-1 papillary thyroid carcinoma cells. The following applies: for IC50: Homo sapiens, TPC1. The class given is cell-based, human.
Source text: as §1, §2, §3

Each structure is given as a SMILES string.

Turning to `CC1(C)CCC2(C(=O)O)CCC3(C)C(=CCC4C5(C)CCC(OC6OC(C(=O)O)C(O)C(O)C6O)C(C)(C)C5CCC43C)C2C1` [CE, oleanolic acid-3-O-β-D-glucuronopyranoside], the IC50 in the experiment on Nthy-ori 3-1 (24 h) worked out at 76 µg/mL; in the experiment with Nthy-ori 3-1 (48 h), 30.1 µg/mL; in the experiment on 8505C (24 h), 2.8 µg/mL; in the experiment on 8505C (48 h), 1.8 µg/mL; in the experiment on TPC-1 (TPC-1, 24 h) it was 8.5 µg/mL; in the experiment with TPC-1 (TPC-1, 48 h), 5.8 µg/mL. In addition, the “Selectivity Index (SI)” value in the experiment on 8505C (24 h) turned out to be 26.9; in the experiment with 8505C (48 h), 16.5; in the experiment with TPC-1 (IC50 Nthy-ori 3-1 / IC50 TPC-1, 24 h) it was 9.0; in the experiment with TPC-1 (IC50 Nthy-ori 3-1 / IC50 TPC-1, 48 h), 5.1.
